Legend:
Plasmodium berghei = assay: Antimalarial activity against hepatic stage of Plasmodium berghei sporozoites GFP ANKA incubated for 3 hrs followed by replacement with fresh media for every 24 hrs by immunostaining analysis; assay type: functional, organism-based
[1] = Selectivity index, ratio of CC50 for against Macaca fascicularis Primary hepatocyte to EC50 for hepatic stage of Plasmodium berghei sporozoites GFP ANKA; assay type: toxicity; conditions: cynomolgus monkey, primary hepatocytes; read-out: Ratio CC50/EC50
Plasmodium falciparum = assay: Antiplasmodial activity against blood stage Plasmodium falciparum K1 assessed as reduction in parasite growth incubated for 72 hrs by SYBR Green I fluorescence based method; assay type: functional, organism-based
[2] = (§1) Cytotoxicity against cynomolgus monkey Primary hepatocyte assessed as cell viability; assay type: toxicity, cell-based, Macaca fascicularis; conditions: primary hepatocytes
[3] = Effective permeability of compound at pH 7.4 incubated for 4 hrs by PAMPA-GIT assay; assay type: ADME; conditions: read-out: Peff
[4] = Metabolic stability in CD-1 mouse liver microsomes assessed as intrinsic clearance at pH 7.4 measured upto 40 mins in presence of NADP; assay type: ADME, Microsome; conditions: read-out: CLH
[5] = Chromatographic hydrophobicity index, log D of the compound at pH 7.4 by HPLC analysis; assay type: physicochemical
[6] = Solubility of the compound in PBS buffer at 1 mg incubated for 10 mins by HPLC analysis; assay type: physicochemical
[7] = Metabolic stability in CD-1 mouse liver microsomes assessed as half life at pH 7.4 measured upto 40 mins in presence of NADP; assay type: ADME, Microsome
[8] = Effective permeability of compound at pH 6.0 incubated for 4 hrs by PAMPA-GIT assay; assay type: ADME; conditions: read-out: Peff
[9] = target: Voltage-gated inwardly rectifying potassium channel KCNH2 (Homo sapiens, UniProt Q12809); assay: Inhibition of human ERG incubated for 4 hrs by fluorescence polarization assay; assay type: toxicity
[10] = Effective permeability of compound at pH 5 incubated for 4 hrs by PAMPA-GIT assay; assay type: ADME; conditions: read-out: Peff
Hepatocyte = assay: as §1; assay type: toxicity, cell-based, Macaca fascicularis; conditions: hepatocytes
[11] = Plasmodium falciparum, K1, 72 h

Sequence of Voltage-gated inwardly rectifying potassium channel KCNH2 (Q12809 whole entry): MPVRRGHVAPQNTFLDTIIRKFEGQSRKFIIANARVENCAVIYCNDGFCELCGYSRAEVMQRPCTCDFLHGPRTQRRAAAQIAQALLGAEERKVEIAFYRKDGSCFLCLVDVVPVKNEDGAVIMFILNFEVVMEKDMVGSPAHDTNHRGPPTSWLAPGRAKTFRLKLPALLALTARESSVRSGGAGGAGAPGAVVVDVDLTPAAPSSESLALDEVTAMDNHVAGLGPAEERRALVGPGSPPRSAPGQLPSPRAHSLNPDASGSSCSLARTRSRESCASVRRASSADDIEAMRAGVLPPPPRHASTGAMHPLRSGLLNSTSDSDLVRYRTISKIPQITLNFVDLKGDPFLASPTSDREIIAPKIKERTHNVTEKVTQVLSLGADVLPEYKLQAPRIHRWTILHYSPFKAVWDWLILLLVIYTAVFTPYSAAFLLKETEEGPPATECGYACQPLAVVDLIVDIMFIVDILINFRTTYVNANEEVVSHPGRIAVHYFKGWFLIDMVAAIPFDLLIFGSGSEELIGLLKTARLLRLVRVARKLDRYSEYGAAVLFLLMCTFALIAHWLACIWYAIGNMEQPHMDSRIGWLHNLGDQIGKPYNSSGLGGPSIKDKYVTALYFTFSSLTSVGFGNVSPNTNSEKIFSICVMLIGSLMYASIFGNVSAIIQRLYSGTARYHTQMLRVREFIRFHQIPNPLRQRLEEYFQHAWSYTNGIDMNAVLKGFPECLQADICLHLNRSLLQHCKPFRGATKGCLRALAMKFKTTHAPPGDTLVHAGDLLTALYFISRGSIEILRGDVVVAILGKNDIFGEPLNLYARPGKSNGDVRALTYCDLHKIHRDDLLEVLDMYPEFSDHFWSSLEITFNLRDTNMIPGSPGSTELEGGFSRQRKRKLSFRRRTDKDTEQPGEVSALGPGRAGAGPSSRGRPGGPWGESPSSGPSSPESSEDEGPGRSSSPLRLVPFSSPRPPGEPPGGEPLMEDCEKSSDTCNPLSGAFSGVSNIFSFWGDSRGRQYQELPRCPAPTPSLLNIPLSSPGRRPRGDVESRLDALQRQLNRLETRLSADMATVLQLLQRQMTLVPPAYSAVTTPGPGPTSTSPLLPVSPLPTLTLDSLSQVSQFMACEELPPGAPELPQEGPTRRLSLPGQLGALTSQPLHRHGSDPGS

Row | Structure (SMILES) | EC50 (Plasmodium berghei; Plasmodium berghei, GFP ANKA) [µM] | selectivity ratio [1] | EC50 (Plasmodium falciparum; [11]) [µM] | CC50 [2] [µM] | other results
1 | Cc1ccc(-c2cc3nc(NC(C)(C)C)[nH]c(=O)c3s2)cc1 | 24.3 | > 8.2 | 0.2 | > 200 | 
2 | Cc1ccc(-c2cc3nc(NC(C)(C)C)[nH]c(=O)c3s2)cc1.Cl |  |  |  |  | Papp at 4 h [3]: 0.46 ×10⁻⁶ cm/s; microsomal CLint [4]: 240 µL/min/mg; chromatographic logD [5]: 4.1; solubility at 10 min [6]: 7.92 µM; half-life [7]: 11 min
3 | Cc1ccc(-c2cc3nc(NC(C)(C)C)nc(NC4CCCC4)c3s2)cc1 |  |  | 1.3 |  | 
4 | CCN(CC)CCCNc1nc(NC(C)(C)C)nc2cc(-c3ccc(C)cc3)sc12.Cl.Cl |  |  |  |  | EC50 (Plasmodium berghei): 12.3 µM; Papp at 4 h [3]: 63.1 ×10⁻⁶ cm/s; Papp at 4 h [8]: 46.6 ×10⁻⁶ cm/s; IC50 [9]: 1.41 µM; Papp at 4 h [10]: 48.9 ×10⁻⁶ cm/s; microsomal CLint [4]: 61 µL/min/mg; chromatographic logD [5]: 4.23; CC50 (Hepatocyte): 27.6 µM; solubility at 10 min [6]: 1400 µM; half-life [7]: 37 min
5 | Cc1ccc(-c2cc3nc(NC(C)(C)C)nc(N4CCC(C)CC4)c3s2)cc1 | 35.3 | 1.5 | 0.7 | 52.5 | 
6 | Cc1ccc(-c2cc3nc(NC(C)(C)C)nc(N4CCNCC4)c3s2)cc1 |  |  | 1.6 |  | 
7 | Cc1ccc(-c2cc3nc(NC(C)(C)C)nc(N4CCCCC4)c3s2)cc1 |  |  | 1.2 |  | 
8 | CCN(CC)CCNc1nc(NC(C)(C)C)nc2cc(-c3ccc(C)cc3)sc12 | 14.6 | 2.2 | 0.3 | 32.6 | 
9 | CCN(CC)CCNc1nc(NC(C)(C)C)nc2cc(-c3ccc(C)cc3)sc12.Cl.Cl |  |  |  |  | EC50 (Plasmodium berghei): 14.4 µM; Papp at 4 h [3]: 73.9 ×10⁻⁶ cm/s; Papp at 4 h [8]: 52.1 ×10⁻⁶ cm/s; IC50 [9]: 1.07 µM; Papp at 4 h [10]: 51.2 ×10⁻⁶ cm/s; microsomal CLint [4]: 63 µL/min/mg; chromatographic logD [5]: 4.81; CC50 (Hepatocyte): 59.1 µM; solubility at 10 min [6]: 1140 µM; half-life [7]: 37 min
10 | Cc1ccc(-c2cc3nc(NC(C)(C)C)nc(N4CCC(NCc5ccc(Br)cc5)CC4)c3s2)cc1 | 13.1 | 1.6 | 0.7 | 20.7 | 
11 | COc1ccc(CNC2CCN(c3nc(NC(C)(C)C)nc4cc(-c5ccc(C)cc5)sc34)CC2)cc1 | 14 | 2 | 0.5 | 28.6 | 
12 | Cc1ccc(CSc2cnc(NC(C)(C)C)nc2N2CCC(NCc3cccc(Cl)c3)CC2)cc1 |  |  | 1.2 |  | 
13 | Cc1ccc(-c2cc3nc(NC(C)(C)C)nc(N4CCSCC4)c3s2)cc1 |  |  | 4.9 |  | 
14 | Cc1ccc(-c2cc3nc(NC(C)(C)C)nc(N4CCC(NCc5ccccc5)CC4)c3s2)cc1 | 16.1 | 2.7 | 0.7 | 43.6 | 
15 | Cc1ccc(-c2cc3nc(NC(C)(C)C)nc(NCCCN(C)C)c3s2)cc1.Cl.Cl |  |  |  |  | EC50 (Plasmodium berghei): 14.4 µM; Papp at 4 h [3]: 67.3 ×10⁻⁶ cm/s; Papp at 4 h [8]: 47.8 ×10⁻⁶ cm/s; IC50 [9]: > 100 µM; Papp at 4 h [10]: 36.2 ×10⁻⁶ cm/s; EC50 (Plasmodium falciparum): 0.2 µM; microsomal CLint [4]: 33 µL/min/mg; chromatographic logD [5]: 4.29; CC50 (Hepatocyte): 35.5 µM; solubility at 10 min [6]: 1990 µM; half-life [7]: > 40 min
16 | Cc1ccc(-c2cc3nc(NC(C)(C)C)nc(N4CCN(C)CC4)c3s2)cc1 |  |  | 1.2 |  | 
17 | Cc1ccc(-c2cc3nc(NC(C)(C)C)nc(NCCN(C)C)c3s2)cc1 | 13.8 | 1 | 0.3 |  | CC50 (Hepatocyte): 14 µM
18 | Cc1ccc(-c2cc3nc(NC(C)(C)C)nc(N4CCC(NCc5ccc(C(F)(F)F)cc5)CC4)c3s2)cc1 |  |  | 1.7 |  | 

Row | Structure (SMILES) | EC50 (Plasmodium berghei; Plasmodium berghei, GFP ANKA) [µM] | selectivity ratio [1] | EC50 (Plasmodium falciparum; [11]) [µM] | CC50 [2] [µM] | other results
19 | Cc1ccc(-c2cc3nc(NC(C)(C)C)nc(N4CCCC4)c3s2)cc1 | 14.3 | 1.2 | 0.9 | 17.5 | 
20 | Cc1ccc(-c2cc3nc(NC(C)(C)C)nc(N4CCC(NCc5cccc(C(F)(F)F)c5)CC4)c3s2)cc1 |  |  | 1.3 |  | 
21 | Cc1ccc(-c2cc3nc(NC(C)(C)C)nc(N4CCC4)c3s2)cc1 | 15.1 | 1.7 | 0.7 | 25.8 | 
22 | Cc1ccc(CNC2CCN(c3nc(NC(C)(C)C)nc4cc(-c5ccc(C)cc5)sc34)CC2)cc1 | 15.4 | 2.3 | 0.7 | 35.5 | 
23 | Cc1ccc(-c2cc3nc(NC(C)(C)C)nc(NC4CCCCC4)c3s2)cc1 |  |  | 2.5 |  | 
24 | Cc1ccc(-c2cc3nc(NC(C)(C)C)nc(N4CCC(NC(=O)OC(C)(C)C)CC4)c3s2)cc1 |  |  | 2.1 |  | 
25 | Cc1ccc(-c2cc3nc(NC(C)(C)C)nc(N4CCC(NCc5ccc(Cl)cc5)CC4)c3s2)cc1 | 14.2 | 2.5 | 1 | 36.1 | 
26 | Cc1ccc(-c2cc3nc(NC(C)(C)C)nc(N4CCC(N)CC4)c3s2)cc1 | 31.4 | 1 | 1 | 31.6 | 
27 | Cc1ccc(-c2cc3nc(NC(C)(C)C)nc(NC4CCC4)c3s2)cc1 | 6.5 | 1.3 | 0.9 | 8.8 | 
28 | Cc1ccc(-c2cc3nc(NC(C)(C)C)nc(N4CCOCC4)c3s2)cc1 |  |  | 1.6 |  | 
29 | Cc1ccc(-c2cc3nc(NC(C)(C)C)nc(NCCN(C)C)c3s2)cc1.Cl.Cl |  |  |  |  | EC50 (Plasmodium berghei): 14.2 µM; Papp at 4 h [3]: 64.9 ×10⁻⁶ cm/s; Papp at 4 h [8]: 41.1 ×10⁻⁶ cm/s; IC50 [9]: 3.4 µM; Papp at 4 h [10]: 43 ×10⁻⁶ cm/s; EC50 (Plasmodium falciparum): 0.4 µM; microsomal CLint [4]: 64 µL/min/mg; chromatographic logD [5]: 4.5; CC50 (Hepatocyte): 32.5 µM; solubility at 10 min [6]: 1640 µM; half-life [7]: 37 min
30 | Cc1ccc(-c2cc3nc(NC(C)(C)C)nc(N4CCC(NCc5ccc([N+](=O)[O-])cc5)CC4)c3s2)cc1 | 7.3 | 2.2 | 0.7 | 15.8 | 
31 | CCN(CC)CCCNc1nc(NC(C)(C)C)nc2cc(-c3ccc(C)cc3)sc12 | 11.5 | 2.2 | 0.2 | 25.8 | 
32 | Cc1ccc(-c2cc3nc(NC(C)(C)C)nc(NC4CC4)c3s2)cc1 |  |  | 1.1 |  | 
33 | Cc1ccc(-c2cc3nc(NC(C)(C)C)nc(NCCCN(C)C)c3s2)cc1 | 15.3 | > 6.5 | 0.3 |  | CC50 (Hepatocyte): > 100 µM
34 | CCN(CC)CCCC(C)Nc1ccnc2cc(Cl)ccc12 (stereo not given) [CHLOROQUINE] |  |  | 0.8 |  | 
35 | C[C@H]1c2cccc(O)c2C(=O)C2=C(O)[C@]3(O)C(=O)C(C(N)=O)=C(O)[C@@H](N(C)C)[C@@H]3[C@@H](O)[C@@H]21 [DOXYCYCLINE] |  |  | 5 |  | 

Source: ChEMBL document CHEMBL5346874, “New antiplasmodial 4-amino-thieno[3,2-d]pyrimidines with improved intestinal permeability and microsomal stability” (Eur J Med Chem, 2023)
